The text below walks through data of patent publication US12129504B2, “Caproate-producing bacterium with multiple substrate utilization capabilities and its applications” (Jiangnan University, priority 2021, dated 2024).

For data set [1] the following is noted: cited from earlier work.
For data set [2], the system named is Oscillospiraceae sp. LBM10036. Description: Tolerance of the strain to toxicity of caproic acid: growth (OD600) in liquid mediums with different initial concentrations of caproic acid. Format: cell-based. The text has this:
A brewing environment of Strong aroma-type Baijiu is characterized by a low pH, and the lower the pH, the higher the content of free caproic acid in a system. Free caproic acid can cause toxicity to bacterial cells, therefore, the stronger the tolerance of bacterial cells to the toxicity of caproic acid, the more favorable it is for the survival of the bacterial cells in a system. The growth of the Oscillospiraceae sp. LBM10036 was tracked and measured by designing liquid mediums with different initial concentrations of caproic acid.
The medium contains (calculated in g/L): glucose 20.0, yeast powder 10.0, peptone 10.0, dipotassium hydrogen phosphate 1.0, potassium dihydrogen phosphate 0.5, ammonium sulfate 2.0, magnesium sulfate 0.1, and a cosubstrate 5.0, as well as a trace element nutrient solution 0.15-1.0 (mL/L). The cosubstrate is one or both of acetate and butyrate. The trace element nutrient solution contains (calculated in g/L): calcium chloride 10, cobalt chloride 10, zinc sulfate 10, manganese sulfate 10, and ferrous sulfate heptahydrate 15. The pH of the medium is 5.5, and the medium was sterilized at 115° C. for 30 min.
The dissolved medium was divided into 5 blue cap bottles (100 mL), each blue cap bottle containing 100 mL of medium. Before sterilization, the initial concentrations of caproic acid in the mediums were adjusted to 0 g/L, 1 g/L, 2 g/L, 3 g/L, and 4 g/L using a caproic acid standard. At this point, the initial concentrations of free caproic acid in the mediums were 0 g/L, 0.19 g/L, 0.37 g/L, 0.56 g/L, and 0.75 g/L, respectively. The mediums were sterilized at 115° C. for 30 min. After sterilization, the medium of each initial concentration gradient of caproic acid was divided into 3 parts, each part containing 30 mL in a 50 mL centrifuge tube. The residual mediums were taken out of an anaerobic incubator for re-determining the pH and initial concentrations of total caproic acid, and calculating whether the actual concentrations of free caproic acid meet the experimental design.
(1) An Oscillospiraceae sp. LBM10036 frozen glycerol tube was taken out from a −80° C. refrigerator, activated for cultivation for the first generation at 37° C. in the modified Clostridium growth medium prepared in (1) step 1 until the OD600 was 1.5-2.0 to obtain a first generation seed solution, and then the first generation seed solution was transferred to a fresh modified Clostridium growth medium at an inoculum concentration of 5% (v/v) and activated for the second generation cultivation at 37° C. for 12-18 h until the OD600 was 1.5-2.0 to obtain a second generation seed solution.
(2) 100 mL of the modified Clostridium growth medium described in step (1) was inoculated with the second generation seed solution obtained in step (1) at an inoculum concentration of 5% (v/v) and cultivated until the OD value was 1.5-2.0, to obtain a culture solution.
(3) The mediums with different initial concentration gradients of caproic acid prepared in (2) of step 1 were inoculated with the prepared culture solution at an inoculum concentration of 5% (v/v). The medium of each initial concentration gradient of caproic acid had 3 replicates, and sampled from 0 to 72 h at an interval of 12 h. The maximum specific growth rates under different initial concentration gradients of caproic acid were plotted (as shown in FIG. 4).

What is called pKa is the pH at which an ionisable group is half protonated. For `CCCCCC(=O)O` [caproic acid], the pKa in data set [1] is 4.86. The “growth of Oscillospiraceae sp.” value in data set [2] (caproic acid 4 g/L (free caproic acid 0.75 g/L)) is on record as “significantly inhibited”. Also, in data set [2] (free caproic acid calculated from pH 5.5 and pKa 4.86), the “concentration of free caproic acid at the maximum tolerable initial concentration” value is given as 0.56 g/L. Also, the OD600 in data set [2] (initial caproic acid 1 g/L, 0 h, medium pH 5.5) stood at 0.26 ± 0.00; in data set [2] (initial caproic acid 1 g/L, 12 h, medium pH 5.5), 0.53 ± 0.02; in data set [2] (initial caproic acid 1 g/L, 24 h, medium pH 5.5), 1.96 ± 0.17; in data set [2] (initial caproic acid 1 g/L, 48 h, medium pH 5.5), 2.39 ± 0.20; in data set [2] (initial caproic acid 1 g/L, 72 h, medium pH 5.5), 2.25 ± 0.32; in data set [2] (initial caproic acid 2 g/L, 0 h, medium pH 5.5), 0.27 ± 0.01. Moreover, the OD600 in data set [2] (initial caproic acid 2 g/L, 12 h, medium pH 5.5) came out at 0.30 ± 0.02; in data set [2] (initial caproic acid 2 g/L, 24 h, medium pH 5.5), 1.06 ± 0.37; in data set [2] (initial caproic acid 2 g/L, 48 h, medium pH 5.5), 2.00 ± 0.10; in data set [2] (initial caproic acid 2 g/L, 72 h, medium pH 5.5), 1.72 ± 0.17; in data set [2] (initial caproic acid 3 g/L, 0 h, medium pH 5.5) it was 0.26 ± 0.01; in data set [2] (initial caproic acid 3 g/L, 12 h, medium pH 5.5), 0.69 ± 0.06. The OD600 in data set [2] (initial caproic acid 3 g/L, 24 h, medium pH 5.5) stood at 0.88 ± 0.07; in data set [2] (initial caproic acid 3 g/L, 48 h, medium pH 5.5), 1.46 ± 0.07; in data set [2] (initial caproic acid 3 g/L, 72 h, medium pH 5.5), 1.44 ± 0.05; in data set [2] (initial caproic acid 4 g/L, 0 h, medium pH 5.5) it was 0.23 ± 0.01; in data set [2] (initial caproic acid 4 g/L, 12 h, medium pH 5.5), 0.22 ± 0.01; in data set [2] (initial caproic acid 4 g/L, 24 h, medium pH 5.5) it was 0.20 ± 0.01. Moreover, the OD600 came out at 0.21 ± 0.04 in data set [2] (initial caproic acid 4 g/L, 48 h, medium pH 5.5) and 0.20 ± 0.02 in data set [2] (initial caproic acid 4 g/L, 72 h, medium pH 5.5). Besides, the “maximum tolerable initial concentration of caproic acid” value in data set [2] (total caproic acid, medium pH 5.5) amounted to 3 g/L.
